The results in this text go back to article PMC8218592 (Journal of medicinal chemistry, 2019).

Usually IC50 stands for the midpoint of a concentration-inhibition curve. Low values mean higher potency, high ones lower potency.

The target of assay [1] is T1, ERAP1 (Homo sapiens, UniProt Q9NZ08). Nature of the assay: ERAP1 WK10. The format is biochemical. The following applies: Figure 3B.
Assay [2] has as its target T1, ERAP1. Nature of the assay: ERAP1 L-pNA hydrolysis mode of action kinetics. The format is biochemical.
For a further assay, the target named is T2, IRAP (Mus musculus, UniProt Q8C129).
T2 sequence (Q8C129 132-1025 limits assumed): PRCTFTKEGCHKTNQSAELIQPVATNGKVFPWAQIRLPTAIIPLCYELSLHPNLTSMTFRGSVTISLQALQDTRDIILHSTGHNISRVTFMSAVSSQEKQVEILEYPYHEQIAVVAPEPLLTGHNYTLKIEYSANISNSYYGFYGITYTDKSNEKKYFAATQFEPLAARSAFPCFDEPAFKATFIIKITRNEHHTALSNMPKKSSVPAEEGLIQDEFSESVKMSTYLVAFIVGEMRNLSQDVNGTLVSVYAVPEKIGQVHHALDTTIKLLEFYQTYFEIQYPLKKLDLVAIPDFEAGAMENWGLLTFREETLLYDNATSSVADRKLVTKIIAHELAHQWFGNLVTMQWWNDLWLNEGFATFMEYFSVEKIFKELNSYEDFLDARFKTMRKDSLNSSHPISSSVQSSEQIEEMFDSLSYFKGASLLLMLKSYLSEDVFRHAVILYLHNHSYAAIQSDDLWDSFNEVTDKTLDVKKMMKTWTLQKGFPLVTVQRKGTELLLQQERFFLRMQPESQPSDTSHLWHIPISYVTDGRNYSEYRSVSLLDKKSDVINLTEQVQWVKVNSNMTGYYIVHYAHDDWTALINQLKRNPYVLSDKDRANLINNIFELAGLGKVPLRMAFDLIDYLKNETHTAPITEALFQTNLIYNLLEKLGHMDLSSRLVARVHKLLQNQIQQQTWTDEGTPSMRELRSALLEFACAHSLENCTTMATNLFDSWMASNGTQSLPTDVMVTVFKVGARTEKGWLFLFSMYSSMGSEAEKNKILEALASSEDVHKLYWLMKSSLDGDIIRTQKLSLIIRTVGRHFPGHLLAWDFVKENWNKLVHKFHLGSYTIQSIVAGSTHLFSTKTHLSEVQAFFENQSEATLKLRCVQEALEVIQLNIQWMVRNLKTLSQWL
Nature of the assay: IRAP L-AMC hydrolysis assay. The format is biochemical.

For assay [3], the target named is T1, ERAP1. The experiment in a line: ERAP1 LF9 peptide hydrolysis coupled-enzyme assay, mode of action. The following applies: LF9 peptide substrate. The format is biochemical.
A further assay concerns ERAP1 K551A. Nature of the assay: L-AMC activation assay with mutant ERAP1 K551A. The format is biochemical, human.
The test system of a further assay is ERAP1 allele II. Nature of the assay: L-AMC hydrolysis assay with ERAP1 allelic variant allele II. The format is biochemical, human. To be noted: disease-associated allele II (528K).
The target in assay [4] is T1, ERAP1. The experiment in a line: ERAP1 L-AMC hydrolysis assay. The format is biochemical.

Some results are limits rather than exact numbers.

T1 sequence (Q9NZ08 22-941): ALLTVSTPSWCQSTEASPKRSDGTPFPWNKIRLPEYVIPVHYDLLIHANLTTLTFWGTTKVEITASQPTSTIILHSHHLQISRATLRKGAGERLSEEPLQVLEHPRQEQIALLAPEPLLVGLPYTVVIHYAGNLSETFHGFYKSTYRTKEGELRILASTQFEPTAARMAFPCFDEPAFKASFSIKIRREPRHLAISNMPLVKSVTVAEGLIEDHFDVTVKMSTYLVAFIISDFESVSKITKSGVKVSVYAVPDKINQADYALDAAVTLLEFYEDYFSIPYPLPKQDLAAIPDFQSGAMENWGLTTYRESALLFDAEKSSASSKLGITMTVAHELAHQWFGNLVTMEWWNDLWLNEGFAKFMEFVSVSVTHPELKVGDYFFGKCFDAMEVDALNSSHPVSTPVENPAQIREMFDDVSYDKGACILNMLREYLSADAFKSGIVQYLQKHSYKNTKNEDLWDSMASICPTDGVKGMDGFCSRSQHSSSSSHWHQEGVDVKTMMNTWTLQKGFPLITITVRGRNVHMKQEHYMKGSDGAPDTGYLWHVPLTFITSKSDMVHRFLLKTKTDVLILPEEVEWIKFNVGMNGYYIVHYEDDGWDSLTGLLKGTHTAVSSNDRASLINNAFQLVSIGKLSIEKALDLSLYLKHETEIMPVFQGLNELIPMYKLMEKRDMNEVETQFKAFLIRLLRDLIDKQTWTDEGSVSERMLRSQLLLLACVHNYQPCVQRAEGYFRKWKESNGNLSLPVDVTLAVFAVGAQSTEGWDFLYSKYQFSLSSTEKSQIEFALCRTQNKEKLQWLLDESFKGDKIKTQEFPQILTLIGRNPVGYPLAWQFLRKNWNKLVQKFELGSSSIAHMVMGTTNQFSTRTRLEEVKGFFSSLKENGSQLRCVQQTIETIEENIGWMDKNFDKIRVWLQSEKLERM

Consider `N=C(NCCc1c[nH]c2ccccc12)NS(=O)(=O)c1cc(F)ccc1F` [Compound 1, N-(N-(2-(1H-Indol-3-yl)ethyl)carbamimidoyl)-2,5-difluorobenzenesulfonamide], for which, at ERAP1 [1], the “effect on WK10 peptide hydrolysis” value was “inhibited peptide hydrolysis in a dose-dependent manner”. Besides, the mode of inhibition entry on ERAP1 [2] (L-pNA substrate) is on record as “competitive”. Besides, the “change in potency for mutant ERAP1 (L-AMC inhibition)” value in the assay with ERAP1 T350A is recorded as “small reduction in potency”.
As for `CC(=O)N1CCN(C(=O)C2(NC(=O)Nc3ccc(C)cc3)CCCCC2)CC1` [Compound 2, 1-(1-(4-Acetylpiperazine-1-carbonyl)cyclohexyl)-3-(p-tolyl)urea], the 50% inhibitory concentration (IC50) at IRAP was over 200 µM.
As to `COc1ccc(C(=O)O)cc1S(=O)(=O)Nc1cc(C(F)(F)F)ccc1N1CCCCC1` [Compound 3, 4-Methoxy-3-(N-(2-(piperidin-1-yl)-5-(trifluoromethyl)phenyl)sulfamoyl)benzoic acid], the IC50 on IRAP was over 200 µM. Also, the “effect on IRAP activity” value on IRAP (Figure 2C) is listed as “no detectable effect”. Besides, the “effect on WK10 peptide hydrolysis” value at ERAP1 [1] is “inhibited peptide hydrolysis in a dose-dependent manner”. In addition, at ERAP1 [2] (over the concentration range tested), the “increase of L-pNA hydrolysis activity (Vmax/Khalf)” value is recorded as “up to 1.8 fold”. Moreover, the mode of inhibition result on ERAP1 [3] is recorded as “competitive”. Further, in the assay on ERAP1 K551A, the “effect of mutation on L-AMC AC50” value is recorded as “substantial effect”. For the same compound, the “L-AMC AC50 for ERAP1 allele II” value with ERAP1 allele II is “sub-micromolar”.
In the case of `CC(=O)N1CCN(C(=O)C2(NC(=O)Nc3ccc(Cl)cc3)CCCCC2)CC1` [Compound 16, 1-(1-(4-Acetylpiperazine-1-carbonyl)cyclohexyl)-3-(4-chlorophenyl)urea], the IC50 at IRAP is over 200 µM.
On the same count and under the same terms, the same measure for `COc1ccc(NC(=O)NC2(C(=O)N3CCN(C(C)=O)CC3)CCCCC2)cc1` [Compound 17, 1-(1-(4-Acetylpiperazine-1-carbonyl)cyclohexyl)-3-(4-methoxyphenyl)urea]: over 200 µM; for `CC(=O)N1CCN(C(=O)C2(NC(=O)Nc3ccc(F)cc3)CCCCC2)CC1` [Compound 18, 1-(1-(4-Acetylpiperazine-1-carbonyl)cyclohexyl)-3-(4-fluorophenyl)urea]: over 200 µM.
Turning to `CC(=O)N1CCN(C(=O)C2(NC(=O)Nc3ccccc3)CCCCC2)CC1` [Compound 19, 1-(1-(4-Acetylpiperazine-1-carbonyl)cyclohexyl)-3-phenylurea], at IRAP, the IC50 is over 200 µM.
As for `Cc1ccc(NC(=O)NC2(C(=O)N3CCOCC3)CCCCC2)cc1` [Compound 20, 1-(1-(Morpholine-4-carbonyl)cyclohexyl)-3-(p-tolyl)urea], at ERAP1 [4], the “activity in ERAP1 L-AMC hydrolysis assay” value was “no detectable inhibitory activity”. This compound registered a concentration for half-maximal inhibition (IC50) at IRAP of over 200 µM.
As to `Cc1ccc(NC(=O)NC2(C(=O)N3CCN(c4ccccc4)CC3)CCCCC2)cc1` [Compound 21, 1-(1-(4-Phenylpiperazine-1-carbonyl)cyclohexyl)-3-(p-tolyl)urea], the “activity in ERAP1 L-AMC hydrolysis assay” value at ERAP1 [4] is listed as “no detectable inhibitory activity”. The same compound showed a half-maximal inhibitory concentration (IC50) against IRAP of over 200 µM.
With `CC(=O)N1CCN(C(=O)C(C)(C)NC(=O)Nc2ccc(C)cc2)CC1` [Compound 22, 1-(1-(4-Acetylpiperazin-1-yl)-2-methyl-1-oxopropan-2-yl)-3-(p-tolyl)urea], the IC50 against IRAP was over 200 µM.
In the case of `CC(=O)N1CCN(C(=O)C2(NC(=O)Nc3ccc(C)cc3)CC2)CC1` [Compound 23, 1-(1-(4-Acetylpiperazine-1-carbonyl)cyclopropyl)-3-(p-tolyl)urea], on IRAP, the IC50 is over 200 µM.
